# Biological target: T1, KRAS (G12D) (Homo sapiens, UniProt P01116, G12D)
# T1 construct: in-cell western with KRAS G12D antibody after 24 h
# Assay: KRAS (G12D) cellular degradation assay in AsPC-1 cells
# Format: cell-based
# Settings: 24 hours, antibody fluorescence (Odyssey CLX), DC50 half-maximal degradation concentration
# Method: ASPC-1 and PK-59 cellular assays ASPC-1 (ATCC cat. CRL-1682) and PK-59 (Nanjing Cobioer, Cat. No. CBP61184) were used in KRAS cellular degradation, pERK inhibition and proliferation assays. The two cell lines were maintained following vendor's instructions. For monitoring KRAS (G12D) cellular degradation and pERK biomarker inhibition, cells were seeded into a 96-well plate with 22,000 and 16,000 cells/well for assays in ASPC-1 and PK-59, respectively. Cells were incubated at 37° C. with 5% CO2 and cell density was monitored until ^~90% confluency was reached. Compounds were serially diluted at a 1:3 ratio and dispensed into each well at final concentrations ranging from […] to 1.5 nM. After incubation for 24 hours, the culture media were removed and the cells were subjected to fixation, permeabilization and blocking (Intercept blocking buffer, Li-cor). For KRAS (G12D) degradation, the cells were treated with primary antibody (KRAS G12D antibody, Cell Signaling Technologies, Cat. No. CST14429) and for β-actin (β-actin mAb, Beyotime, Cat. No. AF-5001), and followed by secondary antibodies, Anti-rabbit IgG (H+L) (DyLight™ 800 4×PEG Conjugate) or IRDye® 680RD Goat anti-Mouse IgG. For pERK inhibition assay, cells were treated with primary antibodies for pERK (Phospho-p44/42 MAPK (Erk1/2) (Thr202/Tyr204) (D13.14.4E) XP® Rabbit mAb, Cell Signaling Technologies, Cat. No. CST-4370) and β-actin (β-actin mAb, Beyotime, Cat. No. AF-5001), and followed by secondary antibodies, Anti-rabbit IgG (H+L) (DyLight™ 800 4×PEG Conjugate) or IRDye® 680RD Goat anti-Mouse IgG. Fluorescence signals were read on Odyssey CLX instrument. For cell proliferation assays, cells were seeded into a 96-well plate at 3,500 and 800 cells/well for assays in ASPC-1 and PK-59, respectively. Cells were incubated at 37° C. with 5% CO2 for overnight. Compounds were serially diluted at a 1:3 ratio and dispensed into each well at final concentrations ranging from […] to 1.5 nM. After incubation for 6 days, cell viability reagent (CellTiter Glo, Promega, Cat. No. G7573) was added to each well and luminescence was recorded on Molecular Devices Spectramax iD3 instrument. IC50, half-maximal inhibitory concentration for pERK inhibition or cell proliferation, and DC50, half-maximal degradation concentration in KRAS (G12D) cellular degradation were determined by fitting the corresponding dose response curves using GraphPad Prism software.
# Wherein “A” means the value <10 nM, “B” means 10 nM<the value <100 nM, “C” means 100 nM<the value <1000 nM, and “D” means the value >1000 nM, in which, the value means the value of DC50 or IC50. NT means not tested.
# T1 sequence (P01116 1-188 isoform P01116-2 G12D): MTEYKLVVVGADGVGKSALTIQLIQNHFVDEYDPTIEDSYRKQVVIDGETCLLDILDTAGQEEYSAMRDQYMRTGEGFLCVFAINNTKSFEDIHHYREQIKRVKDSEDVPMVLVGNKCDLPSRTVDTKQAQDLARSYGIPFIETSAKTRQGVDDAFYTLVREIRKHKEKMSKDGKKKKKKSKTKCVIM
row,Compound,DC50 [nM]
1,"Cc1ncsc1-c1ccc([C@H](CO)NC(=O)[C@@H]2C[C@@H](O)CN2C(=O)[C@H](C(C)C)n2cc(-c3ccc(COc4c(-c5c(C)c(F)cc6[nH]ncc56)c(C5CC5)cc5c(N6C[C@H]7C[C@@H]6CN7)nc(OC6CCOCC6)nc45)cc3)nn2)cc1 (single isomer, unassigned) [Example 5B]",> 1000
2,"CCn1ncc2cccc(C#C[C@H](CO)NC(=O)[C@@H]3C[C@@H](O)CN3C(=O)[C@H](C(C)C)n3cc(-c4ccc(COc5c(-c6c(C)c(F)cc7[nH]ncc67)c(C6CC6)cc6c(N7C[C@@H]8C[C@H]7CN8)nc(O[C@H]7C[C@H](OC)C7)nc56)cc4)nn3)c21 [Example 172, (2S,4R)-1-((2S)-2-(4-(4-(((4-((1S,4S)-2,5-diazabicyclo[2.2.1]heptan-2-yl)-6-cyclopropyl-7-(6-fluoro-5-methyl-1H-indazol-4-yl)-2-((1r,3S)-3-methoxycyclobutoxy)quinazolin-8-yl)oxy)methyl)phenyl)-1H-1,2,3-triazol-1-yl)-3-methylbutanoyl)-N—((R)-4-(1-ethyl-1H-indazol-7-yl)-1-hydroxybut-3-yn-2-yl)-4-hydroxypyrrolidine-2-carboxamide]",10 to 100
3,"CO[C@@H](C)COc1nc(N2CC3CCC(C2)N3)c2cc(C3CC3)c(-c3c(C)c(F)cc4[nH]ncc34)c(OCc3ccc(-c4cn([C@H](C(=O)N5C[C@H](O)C[C@H]5C(=O)N[C@@H](CO)c5ccc(-c6scnc6C)cc5)C(C)C)nn4)cc3)c2n1 (single isomer, unassigned) [Example 12B]",> 1000
4,"CCn1nccc1-c1ccc([C@H](CO)NC(=O)[C@@H]2C[C@@H](O)CN2C(=O)[C@H](C(C)C)n2cc(-c3ccc(COc4c(-c5c(C)c(F)cc6[nH]ncc56)c(C5CC5)cc5c(N6CC7COCC(C6)N7)nc(OC[C@H](C)OC)nc45)cc3)nn2)cc1 [Example 37, (2S,4R)-1-((2S)-2-(4-(4-(((4-(3-oxa-7,9-diazabicyclo[3.3.1]nonan-7-yl)-6-cyclopropyl-7-(6-fluoro-5-methyl-1H-indazol-4-yl)-2-((S)-2-methoxypropoxy)quinazolin-8-yl)oxy)methyl)phenyl)-1H-1,2,3-triazol-1-yl)-3-methylbutanoyl)-N—((R)-1-(4-(1-ethyl-1H-pyrazol-5-yl)phenyl)-2-hydroxyethyl)-4-hydroxypyrrolidine-2-carboxamide]",10 to 100
5,"CCn1nccc1-c1ccc([C@@H](NC(=O)[C@@H]2C[C@@H](O)CN2C(=O)[C@H](C(C)C)n2cc(-c3ccc(COc4c(-c5c(C)c(F)cc6[nH]ncc56)c(C5CC5)cc5c(N(C)[C@@H]6CCNC6)nc(O[C@H]6C[C@H](OC)C6)nc45)cc3)nn2)[C@H](C)O)cc1F [Example 220, (2S,4R)-1-((2S)-2-(4-(4-(((6-cyclopropyl-7-(6-fluoro-5-methyl-1H-indazol-4-yl)-2-((1r,3R)-3-methoxycyclobutoxy)-4-(methyl((R)-pyrrolidin-3-yl)amino)quinazolin-8-yl)oxy)methyl)phenyl)-1H-1,2,3-triazol-1-yl)-3-methylbutanoyl)-N-((1R,2S)-1-(4-(1-ethyl-1H-pyrazol-5-yl)-3-fluorophenyl)-2-hydroxypropyl)-4-hydroxypyrrolidine-2-carboxamide]",< 10

# Next, values leading:
row,DC50 [nM],Compound
1,10 to 100,"CO[C@@H](C)COc1nc(N(C)[C@H]2CCNC2)c2cc(C3CCC3)c(-c3c(C)c(F)c(F)c4[nH]ncc34)c(OCc3ccc(-c4cn([C@H](C(=O)N5C[C@H](O)C[C@H]5C(=O)N[C@H](c5ccc(-c6scnc6C)cc5)[C@@H](C)O)C(C)C)nn4)cc3)c2n1 [Example 175, (2S,4R)-1-((2S)-2-(4-(4-(((6-cyclobutyl-7-(6,7-difluoro-5-methyl-1H-indazol-4-yl)-2-((S)-2-methoxypropoxy)-4-(methyl((S)-pyrrolidin-3-yl)amino)quinazolin-8-yl)oxy)methyl)phenyl)-1H-1,2,3-triazol-1-yl)-3-methylbutanoyl)-4-hydroxy-N-((1R,2R)-2-hydroxy-1-(4-(4-methylthiazol-5-yl)phenyl)propyl)pyrrolidine-2-carboxamide]"
2,10 to 100,"CCn1nccc1-c1ccc([C@H](CO)NC(=O)[C@@H]2C[C@@H](O)CN2C(=O)[C@H](C(C)C)n2cc(-c3ccc(COc4c(-c5c(C)c(F)c(F)c6[nH]ncc56)c(C5CCC5)cc5c(N6C[C@@H]7C[C@H]6CN7)nc(OC[C@H](C)OC)nc45)cc3)nn2)cc1 [Example 106, (2S,4R)-1-((2S)-2-(4-(4-(((4-((1S,4S)-2,5-diazabicyclo[2.2.1]heptan-2-yl)-6-cyclobutyl-7-(6,7-difluoro-5-methyl-1H-indazol-4-yl)-2-((S)-2-methoxypropoxy)quinazolin-8-yl)oxy)methyl)phenyl)-1H-1,2,3-triazol-1-yl)-3-methylbutanoyl)-N—((R)-1-(4-(1-ethyl-1H-pyrazol-5-yl)phenyl)-2-hydroxyethyl)-4-hydroxypyrrolidine-2-carboxamide]"
3,10 to 100,"CO[C@@H](C)COc1nc(N2C[C@H]3CN[C@H](C3)C2)c2cc(C3CC3)c(-c3c(C)c(F)cc4[nH]ncc34)c(OCc3ccc(-c4cn([C@H](C(=O)N5C[C@H](O)C[C@H]5C(=O)N[C@@H](CO)c5ccc(-c6scnc6C)cc5)C(C)C)nn4)cc3)c2n1 [Example 223, (2S,4R)-1-((2S)-2-(4-(4-(((4-((1R,5R)-3,6-diazabicyclo[3.2.1]octan-3-yl)-6-cyclopropyl-7-(6-fluoro-5-methyl-1H-indazol-4-yl)-2-((S)-2-methoxypropoxy)quinazolin-8-yl)oxy)methyl)phenyl)-1H-1,2,3-triazol-1-yl)-3-methylbutanoyl)-4-hydroxy-N—((R)-2-hydroxy-1-(4-(4-methylthiazol-5-yl)phenyl)ethyl)pyrrolidine-2-carboxamide]"
4,10 to 100,"CCn1nccc1-c1ccc([C@H](CO)NC(=O)[C@@H]2C[C@@H](O)CN2C(=O)[C@H](C(C)C)n2cc(-c3ccc(COc4c(-c5c(C)c(F)cc6[nH]ncc56)c(C5CC5)cc5c(N6CCC[C@](C)(O)C6)nc(OC[C@H](C)OC)nc45)cc3)nn2)cc1 [Example 39, (2S,4R)-1-((2S)-2-(4-(4-(((6-cyclopropyl-7-(6-fluoro-5-methyl-1H-indazol-4-yl)-4-((S)-3-hydroxy-3-methylpiperidin-1-yl)-2-((S)-2-methoxypropoxy)quinazolin-8-yl)oxy)methyl)phenyl)-1H-1,2,3-triazol-1-yl)-3-methylbutanoyl)-N—((R)-1-(4-(1-ethyl-1H-pyrazol-5-yl)phenyl)-2-hydroxyethyl)-4-hydroxypyrrolidine-2-carboxamide]"
5,< 10,"CCn1nccc1-c1ccc([C@@H](NC(=O)[C@@H]2C[C@@H](O)CN2C(=O)[C@H](C(C)C)n2cc(-c3ccc(COc4c(-c5c(C)c(F)cc6[nH]ncc56)c(C5CC5)cc5c(N(C)[C@H]6CCNC6)nc(OC[C@H]6CCCO6)nc45)cc3)nn2)[C@H](C)O)c2c1CC2 [Example 209, (2S,4R)-1-((2S)-2-(4-(4-(((6-cyclopropyl-7-(6-fluoro-5-methyl-1H-indazol-4-yl)-4-(methyl((S)-pyrrolidin-3-yl)amino)-2-(((R)-tetrahydrofuran-2-yl)methoxy)quinazolin-8-yl)oxy)methyl)phenyl)-1H-1,2,3-triazol-1-yl)-3-methylbutanoyl)-N-((1R,2S)-1-(5-(1-ethyl-1H-pyrazol-5-yl)bicyclo[4.2.0]octa-1(6),2,4-trien-2-yl)-2-hydroxypropyl)-4-hydroxypyrrolidine-2-carboxamide]"
6,< 10,"CCn1nccc1-c1ccc([C@H](CO)NC(=O)[C@@H]2C[C@@H](O)CN2C(=O)[C@H](C(C)C)n2cc(-c3ccc(COc4c(-c5c(C)c(F)c(F)c6[nH]ncc56)c(C5CC5)cc5c(N6C[C@@H]7C[C@H]6CN7)nc(OC6CCC7(CC6)COC7)nc45)cc3)nn2)cc1 [Example 110, (2S,4R)-1-((2S)-2-(4-(4-(((2-((2-oxaspiro[3.5]nonan-7-yl)oxy)-4-((1S,4S)-2,5-diazabicyclo[2.2.1]heptan-2-yl)-6-cyclopropyl-7-(6,7-difluoro-5-methyl-1H-indazol-4-yl)quinazolin-8-yl)oxy)methyl)phenyl)-1H-1,2,3-triazol-1-yl)-3-methylbutanoyl)-N—((R)-1-(4-(1-ethyl-1H-pyrazol-5-yl)phenyl)-2-hydroxyethyl)-4-hydroxypyrrolidine-2-carboxamide]"

# Reference: US20260295053A1, “COMPOUNDS FOR DEGRADATION AND INHIBITION OF KRAS (G12D) PROTEIN” (Shenzhen Ionova Life Science Co., Ltd., priority 2023, published 2026)
